The data set can be described thus: Dynamic light scattering (DLS) particle size. The class given is physicochemical. Conditions: in chloroform; reverse micelles at w=11.9. On the procedure:
Samples for dynamic light scattering are prepared by dissolving 1 mg of sample into 4 mL of solvent. The solution was then filtered through a 0.45 μm syringe filter into quartz cuvette with a path length of 2 cm. The measurements are obtained on a Malvern Zetasizer Nano.
Solubility properties dictate that gluc anions reside in the aqueous polar region of the reverse micelle and remain associated with CDA through the pairing of carboxylate with the cationic […] head group of CDA.

Turning to “Acetamido Cetyl Dimethyl Ammonium Glucuronate [CDA-gluc]”, the “average diameter (DLS)” value worked out at 14 nm.
